Earlier results, collected in PubChem BioAssay AID1259409 (Chemical Carcinogenesis Research Information System (CCRIS), 2018).

Tested on: rodent chemically induced tumor inhibition, incidence and multiplicity
Assay: CCRIS tumor inhibitor studies
Conditions: Dose [Inhibitor]: 0, Route [Inhibitor]: ORAL, Species: RAT, Strain/Sex: F344/MALE

C=C[C@H](OC(C)=O)c1ccc(OC(C)=O)cc1
tumour outcome (control, treated, inhibition, significance) (Carcinogen: 4-NITROQUINOLINE-1-OXIDE, 56-57-5, 100 PPM IN DIET FOR 10 WK BEGINNING 1 WK PRIOR TO CARCINOGEN TREATMENT (STUDY DURATION: 32 WK), Target Tissue: Type of Lesion: TONGUE: PAPILLOMA OR CARCINOMA, Dose [Carcinogen]: 20 PPM IN DRINKING WATER FOR 8 WK, Promoter: NONE USED): 14/24 (58%), 0/20 (0%), 100%, p<0.001 | tumour outcome (control, treated, inhibition, significance) (Carcinogen: 4-NITROQUINOLINE-1-OXIDE, 56-57-5, 100 PPM IN DIET FOR 22 WK BEGINNING 1 WK POST CARCINOGEN TREATMENT (STUDY DURATION: 32 WK), Target Tissue: Type of Lesion: TONGUE: PAPILLOMA OR CARCINOMA, Dose [Carcinogen]: 20 PPM IN DRINKING WATER FOR 8 WK, Promoter: NONE USED): 14/24 (58%), 0/20 (0%), 100%, p<0.001 | tumour outcome (control, treated, inhibition, significance) (Carcinogen: 4-NITROQUINOLINE-1-OXIDE, 56-57-5, 500 PPM IN DIET FOR 10 WK BEGINNING 1 WK PRIOR TO CARCINOGEN TREATMENT (STUDY DURATION: 32 WK), Target Tissue: Type of Lesion: TONGUE: PAPILLOMA OR CARCINOMA, Dose [Carcinogen]: 20 PPM IN DRINKING WATER FOR 8 WK, Promoter: NONE USED): 14/24 (58%), 2/23 (9%), 84%, p<0.001 | tumour outcome (control, treated, inhibition, significance) (Carcinogen: 4-NITROQUINOLINE-1-OXIDE, 56-57-5, 500 PPM IN DIET FOR 22 WK BEGINNING 1 WK POST CARCINOGEN TREATMENT (STUDY DURATION: 32 WK), Target Tissue: Type of Lesion: TONGUE: PAPILLOMA OR CARCINOMA, Dose [Carcinogen]: 20 PPM IN DRINKING WATER FOR 8 WK, Promoter: NONE USED): 14/24 (58%), 0/23 (0%), 100%, p<0.001 | tumour outcome (control, treated, inhibition, significance) (Carcinogen: AZOXYMETHANE, 25843-45-2, 0.01% IN DIET FOR 4 WK BEGINNING 1 WK PRIOR TO CARCINOGEN TREATMENT (STUDY DURATION: 38 WK), Target Tissue: Type of Lesion: COLON: ADENOCARCINOMA, Dose [Carcinogen]: 15 MG/KG BW 1/WK FOR 3 WK, Promoter: NONE): 70%, 33%, 53%, p<0.03 | tumour outcome (control, treated, inhibition, significance) (Carcinogen: AZOXYMETHANE, 25843-45-2, 0.01% IN DIET FOR 34 WK BEGINNING 1 WK POST LAST CARCINOGEN DOSE (STUDY DURATION: 38 WK), Target Tissue: Type of Lesion: COLON: ADENOCARCINOMA, Dose [Carcinogen]: 15 MG/KG BW 1/WK FOR 3 WK, Promoter: NONE): 70%, 38%, 46%, not significant | tumour outcome (control, treated, inhibition, significance) (Carcinogen: AZOXYMETHANE, 25843-45-2, 0.02% IN DIET FOR 4 WK BEGINNING 1 WK PRIOR TO CARCINOGEN TREATMENT (STUDY DURATION: 38 WK), Target Tissue: Type of Lesion: COLON: ADENOCARCINOMA, Dose [Carcinogen]: 15 MG/KG BW 1/WK FOR 3 WK, Promoter: NONE): 70%, 17%, 76%, p<0.001 | tumour outcome (control, treated, inhibition, significance) (Carcinogen: AZOXYMETHANE, 25843-45-2, 0.02% IN DIET FOR 34 WK BEGINNING 1 WK POST LAST CARCINOGEN DOSE (STUDY DURATION: 38 WK), Target Tissue: Type of Lesion: COLON: ADENOCARCINOMA, Dose [Carcinogen]: 15 MG/KG BW 1/WK FOR 3 WK, Promoter: NONE): 70%, 6%, 91%, p<0.00003 | tumour outcome (control, treated, inhibition, significance) (Carcinogen: AZOXYMETHANE, 25843-45-2, 100 PPM IN DIET FOR 4 WK BEGINNING 1 WK PRIOR TO CARCINOGEN TREATMENT (STUDY DURATION: 38 WK), Target Tissue: Type of Lesion: LARGE INTESTINE: TUMOR, Dose [Carcinogen]: 15 MG/KG BW 1/WK FOR 3 WK, Promoter: NONE USED): 12/17 (71%), 7/18 (39%), 45%, not significant | tumour outcome (control, treated, inhibition, significance) (Carcinogen: AZOXYMETHANE, 25843-45-2, 100 PPM IN DIET FOR 4 WK BEGINNING 1 WK PRIOR TO CARCINOGEN TREATMENT (STUDY DURATION: 38 WK), Target Tissue: Type of Lesion: SMALL INTESTINE: TUMOR, Dose [Carcinogen]: 15 MG/KG BW 1/WK FOR 3 WK, Promoter: NONE USED): 5/17 (29%), 3/18 (17%), 41%, not significant | tumour outcome (control, treated, inhibition, significance) (Carcinogen: AZOXYMETHANE, 25843-45-2, 100 PPM IN DIET FOR 34 WK BEGINNING 1 WK POST CARCINOGEN TREATMENT (STUDY DURATION: 38 WK), Target Tissue: Type of Lesion: LARGE INTESTINE: TUMOR, Dose [Carcinogen]: 15 MG/KG BW 1/WK FOR 3 WK, Promoter: NONE USED): 12/17 (71%), 9/18 (50%), 30%, not significant | tumour outcome (control, treated, inhibition, significance) (Carcinogen: AZOXYMETHANE, 25843-45-2, 100 PPM IN DIET FOR 34 WK BEGINNING 1 WK POST CARCINOGEN TREATMENT (STUDY DURATION: 38 WK), Target Tissue: Type of Lesion: SMALL INTESTINE: TUMOR, Dose [Carcinogen]: 15 MG/KG BW 1/WK FOR 3 WK, Promoter: NONE USED): 5/17 (29%), 4/18 (22%), 24%, not significant | tumour outcome (control, treated, inhibition, significance) (Carcinogen: AZOXYMETHANE, 25843-45-2, 500 PPM IN DIET FOR 4 WK BEGINNING 1 WK PRIOR TO CARCINOGEN TREATMENT (STUDY DURATION: 38 WK), Target Tissue: Type of Lesion: LARGE INTESTINE: TUMOR, Dose [Carcinogen]: 15 MG/KG BW 1/WK FOR 3 WK, Promoter: NONE USED): 12/17 (71%), 8/19 (42%), 41%, not significant | tumour outcome (control, treated, inhibition, significance) (Carcinogen: AZOXYMETHANE, 25843-45-2, 500 PPM IN DIET FOR 4 WK BEGINNING 1 WK PRIOR TO CARCINOGEN TREATMENT (STUDY DURATION: 38 WK), Target Tissue: Type of Lesion: SMALL INTESTINE: TUMOR, Dose [Carcinogen]: 15 MG/KG BW 1/WK FOR 3 WK, Promoter: NONE USED): 5/17 (29%), 5/19 (26%), 10%, not significant | tumour outcome (control, treated, inhibition, significance) (Carcinogen: AZOXYMETHANE, 25843-45-2, 500 PPM IN DIET FOR 34 WK BEGINNING 1 WK POST CARCINOGEN TREATMENT (STUDY DURATION: 38 WK), Target Tissue: Type of Lesion: LARGE INTESTINE: TUMOR, Dose [Carcinogen]: 15 MG/KG BW 1/WK FOR 3 WK, Promoter: NONE USED): 12/17 (71%), 4/20 (20%), 72%, p=0.002 | tumour outcome (control, treated, inhibition, significance) (Carcinogen: AZOXYMETHANE, 25843-45-2, 500 PPM IN DIET FOR 34 WK BEGINNING 1 WK POST CARCINOGEN TREATMENT (STUDY DURATION: 38 WK), Target Tissue: Type of Lesion: SMALL INTESTINE: TUMOR, Dose [Carcinogen]: 15 MG/KG BW 1/WK FOR 3 WK, Promoter: NONE USED): 5/17 (29%), 2/20 (10%), 66%, not significant
